Here are results for 35 substances from patent publication US8969516B2, “Method of hydrolysis of peptide bond” (priority 2006, dated 2015).

The series is described as follows: MALDI-TOF screening of Ni^2+ dependent hydrolysis in a combinatorial peptide library. Format: physicochemical. Particulars: Ni^2+ 2 mM, pH 8.2, 10 mM Tris, score=24/tm. Put shortly: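 MALDI-TOF spectra taken at 2, 4, 6 and 8 h tracked the appearance of Ser/Thr-X-His-Z-Lys-Phe-Leu-NH2 cleavage products and the fall in substrate signals. Reactions: 1 mM peptide mixture, 2 mM Ni^2+, 10 mM Tris pH 8.2, at 37 or 45 °C; X/Z substitutions ranked by summed scores.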

[1] abbreviates: CH3CO-Gly-Ala-Thr-X-His-Z-Lys-Phe-Leu-NH2 library, 37° C.
The mark [2] stands for this setting: CH3CO-Gly-Ala-Thr-X-His-Z-Lys-Phe-Leu-NH2 library, 45° C.
Setting [3] is: CH3CO-Gly-Ala-Ser-X-His-Z-Lys-Phe-Leu-NH2 library, 37° C.
Setting [4] is: CH3CO-Gly-Ala-Ser-X-His-Z-Lys-Phe-Leu-NH2 library, 45° C.

With Ac-GATAHNKFL-NH2 [TAHN], the “hydrolysis score from MALDI-TOF screening” value (“hydrolysis score” below) runs as follows: under setting [1], 0 (a score of 0 if no trace of the product of hydrolysis was seen after 8 hours of incubation); under setting [2], 0 (a score of 0 if no trace of the product of hydrolysis was seen after 8 hours of incubation).

For the substance Ac-GASKHDKFL-NH2 [SKHD], the “hydrolysis score” value under setting [3] is 0 (a score of 0 if no trace of the product of hydrolysis was seen after 8 hours of incubation) and the “hydrolysis score” value under setting [4] was 0 (a score of 0 if no trace of the product of hydrolysis was seen after 8 hours of incubation).

For Ac-GATLHDKFL-NH2 [TLHD], the “hydrolysis score” value by setting is: under setting [1], 0 (a score of 0 if no trace of the product of hydrolysis was seen after 8 hours of incubation); under setting [2], 0 (a score of 0 if no trace of the product of hydrolysis was seen after 8 hours of incubation).

As to Ac-GASKHWKFL-NH2 [SKHW], the “hydrolysis score” value by setting is: under setting [3], 12 (a score of 12, if it was seen to be partially hydrolysed at 2 hours); under setting [4], 12 (a score of 12, if it was seen to be partially hydrolysed at 2 hours).

Ac-GASWHPKFL-NH2 [SWHP]: the “hydrolysis score” value runs as follows: under setting [3], 0 (a score of 0 if no trace of the product of hydrolysis was seen after 8 hours of incubation); under setting [4], 0 (a score of 0 if no trace of the product of hydrolysis was seen after 8 hours of incubation).

In the case of Ac-GASVHTKFL-NH2 [SVHT], the “hydrolysis score” value reads like this: under setting [3], 0 (a score of 0 if no trace of the product of hydrolysis was seen after 8 hours of incubation); under setting [4], 0 (a score of 0 if no trace of the product of hydrolysis was seen after 8 hours of incubation).

Take Ac-GASSHKKFL-NH2 [SSHK]: the “hydrolysis score” value under setting [3] is given as 4 (a score of 4 for detection at 6 hours) and the “hydrolysis score” value under setting [4] is recorded as 6 (a score of 6 for detection at 4 hours).

Turning to Ac-GASWHGKFL-NH2 [SWHG], the “hydrolysis score” value reads like this: under setting [3], 0 (a score of 0 if no trace of the product of hydrolysis was seen after 8 hours of incubation); under setting [4], 3 (a score of 3 for detection at 8 hours).

In the case of Ac-GATTHDKFL-NH2 [TTHD], the “hydrolysis score” value runs as follows: under setting [1], 0 (a score of 0 if no trace of the product of hydrolysis was seen after 8 hours of incubation); under setting [2], 0 (a score of 0 if no trace of the product of hydrolysis was seen after 8 hours of incubation).

Take Ac-GATMHNKFL-NH2 [TMHN]: the “hydrolysis score” value reads like this: under setting [1], 0 (a score of 0 if no trace of the product of hydrolysis was seen after 8 hours of incubation); under setting [2], 0 (a score of 0 if no trace of the product of hydrolysis was seen after 8 hours of incubation).

For the substance Ac-GATMHFKFL-NH2 [TMHF], the “hydrolysis score” value by setting is: under setting [1], 0 (a score of 0 if no trace of the product of hydrolysis was seen after 8 hours of incubation); under setting [2], 0 (a score of 0 if no trace of the product of hydrolysis was seen after 8 hours of incubation).

As for Ac-GATKHTKFL-NH2 [TKHT], the “hydrolysis score” value is 0 (a score of 0 if no trace of the product of hydrolysis was seen after 8 hours of incubation) under setting [1] and 0 (a score of 0 if no trace of the product of hydrolysis was seen after 8 hours of incubation) under setting [2].

Turning to Ac-GATPHTKFL-NH2 [TPHT], the “hydrolysis score” value under setting [2] is 0 (a score of 0 if no trace of the product of hydrolysis was seen after 8 hours of incubation).

On to Ac-GASNHGKFL-NH2 [SNHG], for which the “hydrolysis score” value was 0 (a score of 0 if no trace of the product of hydrolysis was seen after 8 hours of incubation) under setting [3] and 0 (a score of 0 if no trace of the product of hydrolysis was seen after 8 hours of incubation) under setting [4].

Turning to Ac-GASWHNKFL-NH2 [SWHN], the “hydrolysis score” value was 0 (a score of 0 if no trace of the product of hydrolysis was seen after 8 hours of incubation) under setting [3] and 0 (a score of 0 if no trace of the product of hydrolysis was seen after 8 hours of incubation) under setting [4].

In the case of Ac-GATKHLKFL-NH2 [TKHL], the “hydrolysis score” value is, setting by setting: under setting [1], 4 (a score of 4 for detection at 6 hours); under setting [2], 12 (a score of 12, if it was seen to be partially hydrolysed at 2 hours).

For Ac-GATGHEKFL-NH2 [TGHE], the “hydrolysis score” value reads like this: under setting [1], 0 (a score of 0 if no trace of the product of hydrolysis was seen after 8 hours of incubation); under setting [2], 0 (a score of 0 if no trace of the product of hydrolysis was seen after 8 hours of incubation).

Consider Ac-GATVHVKFL-NH2 [TVHV], for which the “hydrolysis score” value is recorded as 0 (a score of 0 if no trace of the product of hydrolysis was seen after 8 hours of incubation) under setting [1] and 0 (a score of 0 if no trace of the product of hydrolysis was seen after 8 hours of incubation) under setting [2].

For the substance Ac-GASSHVKFL-NH2 [SSHV], the “hydrolysis score” value under setting [3] is 3 (a score of 3 for detection at 8 hours) and the “hydrolysis score” value under setting [4] was 4 (a score of 4 for detection at 6 hours).

With Ac-GATRHHKFL-NH2 [TRHH], the “hydrolysis score” value under setting [1] is recorded as 3 (a score of 3 for detection at 8 hours) and the “hydrolysis score” value under setting [2] is given as 4 (a score of 4 for detection at 6 hours).

Consider Ac-GATTHLKFL-NH2 [TTHL], for which the “hydrolysis score” value by setting is: under setting [1], 0 (a score of 0 if no trace of the product of hydrolysis was seen after 8 hours of incubation); under setting [2], 0 (a score of 0 if no trace of the product of hydrolysis was seen after 8 hours of incubation).

As for Ac-GATIHHKFL-NH2 [TIHH], the “hydrolysis score” value is 0 (a score of 0 if no trace of the product of hydrolysis was seen after 8 hours of incubation) under setting [1] and 0 (a score of 0 if no trace of the product of hydrolysis was seen after 8 hours of incubation) under setting [2].

On to Ac-GASGHRKFL-NH2 [SGHR], for which the “hydrolysis score” value under setting [3] was 3 (a score of 3 for detection at 8 hours) and the “hydrolysis score” value under setting [4] was 3 (a score of 3 for detection at 8 hours).

As to Ac-GASVHLKFL-NH2 [SVHL], the “hydrolysis score” value under setting [3] is 3 (a score of 3 for detection at 8 hours) and the “hydrolysis score” value under setting [4] is given as 3 (a score of 3 for detection at 8 hours).

Ac-GATTHIKFL-NH2 [TTHI]: the “hydrolysis score” value under setting [1] is on record as 0 (a score of 0 if no trace of the product of hydrolysis was seen after 8 hours of incubation) and the “hydrolysis score” value under setting [2] was 0 (a score of 0 if no trace of the product of hydrolysis was seen after 8 hours of incubation).

Consider Ac-GASYHMKFL-NH2 [SYHM], for which the “hydrolysis score” value reads like this: under setting [3], 0 (a score of 0 if no trace of the product of hydrolysis was seen after 8 hours of incubation); under setting [4], 0 (a score of 0 if no trace of the product of hydrolysis was seen after 8 hours of incubation).

Ac-GASWHLKFL-NH2 [SWHL]: the “hydrolysis score” value is, setting by setting: under setting [3], 6 (a score of 6 for detection at 4 hours); under setting [4], 12 (a score of 12, if it was seen to be partially hydrolysed at 2 hours).

Take Ac-GATMHTKFL-NH2 [TMHT]: the “hydrolysis score” value runs as follows: under setting [1], 0 (a score of 0 if no trace of the product of hydrolysis was seen after 8 hours of incubation); under setting [2], 0 (a score of 0 if no trace of the product of hydrolysis was seen after 8 hours of incubation).

Ac-GATWHTKFL-NH2 [TWHT]: the “hydrolysis score” value reads like this: under setting [1], 0 (a score of 0 if no trace of the product of hydrolysis was seen after 8 hours of incubation); under setting [2], 0 (a score of 0 if no trace of the product of hydrolysis was seen after 8 hours of incubation).

Ac-GATYHPKFL-NH2 [TYHP]: the “hydrolysis score” value is, setting by setting: under setting [1], 0 (a score of 0 if no trace of the product of hydrolysis was seen after 8 hours of incubation); under setting [2], 0 (a score of 0 if no trace of the product of hydrolysis was seen after 8 hours of incubation).

For the substance Ac-GATWHKKFL-NH2 [TWHK], the “hydrolysis score” value reads like this: under setting [1], 4 (a score of 4 for detection at 6 hours); under setting [2], 4 (a score of 4 for detection at 6 hours).

Regarding Ac-GASIHHKFL-NH2 [SIHH], the “hydrolysis score” value reads like this: under setting [3], 3 (a score of 3 for detection at 8 hours); under setting [4], 3 (a score of 3 for detection at 8 hours).

As to Ac-GASGHNKFL-NH2 [SGHN], the “hydrolysis score” value is 0 (a score of 0 if no trace of the product of hydrolysis was seen after 8 hours of incubation) under setting [3] and 0 (a score of 0 if no trace of the product of hydrolysis was seen after 8 hours of incubation) under setting [4].

With Ac-GASPHKKFL-NH2 [SPHK], the “hydrolysis score” value is on record as 0 (a score of 0 if no trace of the product of hydrolysis was seen after 8 hours of incubation) under setting [3] and 0 (a score of 0 if no trace of the product of hydrolysis was seen after 8 hours of incubation) under setting [4].

Regarding Ac-GATGHMKFL-NH2 [TGHM], the “hydrolysis score” value was 0 (a score of 0 if no trace of the product of hydrolysis was seen after 8 hours of incubation) under setting [1] and 0 (a score of 0 if no trace of the product of hydrolysis was seen after 8 hours of incubation) under setting [2].
